Test results from paper PMC9653409, “Generative deep learning enables the discovery of a potent and selective RIPK1 inhibitor” (Nature Communications, 2022).
Values joined by “and” are separate entries in the source; they are usually repeats but may differ in a detail not shown here. Equal entries are not always repeated. Where two headings read alike, the source gives them in different places.

What was measured:
HT29-vector cells = experiment: TSZ-induced necroptosis in HT29-vector cells (CCK8); assay type: cell-based
Procedure: Cell necroptosis protection assays were performed in 96-well cell culture plates. Cells were plated in each well and cultured at 37 °C overnight. […] The cell survival rate was determined using a CCK8 cell viability assay kit and CLARIOstar (v5.61). […] All experiments were performed at least two times, and each EC50 value was expressed as mean ± standard deviation (SD).
The lentiCRISPRv2 vector targeting RIPK1 (sgRNA, 5’- […]-3’) was constructed by the Azenta company. HEK 293 T cells were transfected with lentiCRISPRv2 targeting RIPK1 and empty vector using Hieff Trans^TM Liposomal Transfection Reagent (Yeasen), respectively. […] The concentrated viruses were added to HT29 cells along with 8 μg/mL of polybrene (Yeasen) to enhance transfection efficiency. The infection assay was repeated in the next day under the same conditions. Finally, HT29 cells were screened with 3 μg/mL puromycin. Western blot analysis was used to confirm the RIPK1 deletion.

pRIPK1, pRIPK3, pMLKL = experiment: DSS-induced IBD mouse model: colon western blot; assay type: in vivo, C57BL/6 female mice; details: 40 mg/kg i.p., day 7
Procedure: The liver in the SIRS model and the colon in the IBD model were harvested, homogenated and sonicated in RIPA lysis buffer.
The cell proteins or tissue proteins were separated in a polyacrylamide gel and transferred to a methanol-activated polyvinylidene fluoride membrane. The membrane was blocked for 2 h in Tris-buffered saline plus Tween-20 containing 5% milk and then immunoblotted sequentially with primary and secondary antibodies. Detection was performed with an ECL chemiluminescence kit (Abbkine). The antibodies used were human RIPK1 antibody (R&D, 334640, 1:1000), mouse RIPK1 antibody (Affinity, DF2642, 1:1000), human phospho-RIP (Ser166) rabbit mAb (Cell Signaling Technologies, 65746, 1:1000), mouse phospho-RIP (Ser321) rabbit mAb (Cell Signaling Technologies, 38662, 1:1000), human RIPK3 (B-2) antibody (Santa Cruz, sc-374639, 1:250), mouse RIPK3 antibody (Abcam, ab62344, 1:1000), human anti-RIP3 (phospho S227) antibody (Abcam, ab209384, 1:2000), mouse anti-RIP3 (phospho T231 + S232) antibody (Abcam, ab205421, 1:500), anti-MLKL (58–70) antibody (Sigma, M6697, 1:250), human anti-MLKL (phospho S358) antibody (Abcam, ab187091, 1:1000), mouse anti-MLKL (phospho S345) antibody (Abcam, ab196436, 1:1000), and β-actin (Proteintech, 66009-1-Ig, 1:1000).

[1] = C57B6, mouse, in vivo
[2] = Pharmacokinetics in Sprague-Dawley rats; assay type: in vivo; details: for Plasma Concentraion / concentration at 0.083 h / concentration at 0.5 h / concentration at 1 h / concentration at 2 h / concentration at 4 h / concentration at 6 h / concentration at 8 h: animals 1-3; for concentration at 0.083 h / concentration at 0.5 h / concentration at 1 h / concentration at 2 h / concentration at 4 h / concentration at 6 h / concentration at 8 h: read-out: Plasma Concentraion; for MRT inf: read-out: MRT0-∞
Procedure: The PK properties of compounds were examined in male Sprague-Dawley rats (n = 3 per group, weight: 180–220 g). Compounds were dissolved in saline with 5% (v/v) DMSO plus 40% (v/v) PEG400. The animals were administered with a single dose of 5 mg/kg (intravenous injection (i.v.)), 20 mg/kg (intraperitoneal injection (i.p.) or oral gavage (p.o.)). Blood samples were collected at 0.083, 0.25, 0.5, 1, 2, 4, 6, 8, 10 and 24 h, and centrifuged to isolate plasma. Subsequently, the plasma compound concentrations were determined by LC-MS/MS-13 (TQ5500, SCIEX), and the PK parameters were calculated using Phoenix WinNonlin 7.0.

TNFα = experiment: DSS-induced IBD mouse model: TNFα in cultured colon supernatant (ELISA); assay type: in vivo, C57BL/6 female mice
Procedure: DSS (3% w/v) was administered in drinking water ad libitum for 7 d (from day 0 to day 7). DSS solution was replaced three times on day 2, day 4, and day 6. […] Three mice in each group were killed at random on day 7, and distal colon tissues were collected for analysis. The mice weight and survival rate were recorded daily.
In the TNFα-induced SIRS model, at 6 h after TNFα injection, four mice in each group were killed at random, and the serums were collected, the serum concentrations of IL-1β and IL-6 were measured using ELISA kits (Neobioscience Technology) according to manufacturer’s instructions. […] The supernatant was collected by sequential centrifugation at 500 × g for 10 min and 3000 × g for 10 min. The concentrations of cytokines TNFα, IL-6, and IL-1β were measured using ELISA kits (Neobioscience Technology).

[3] = male, Sprague-Dawley, rat, plasma, ip, 20 mg/kg
[4] = male, Sprague-Dawley, rat, plasma, iv, 5 mg/kg
[5] = male, Sprague-Dawley, rat, plasma, po, 20 mg/kg

Structure (SMILES): CC(C)C(=O)Nc1nc2cc(-c3ccc4c(c3)c(C(=O)NC(C)c3ccccc3)cn4C)ccn2n1 (stereo not drawn) [RI-962]
- viability at 0.000169 µM (HT29-vector cells; 0.000169 μM + TSZ, read-out: Cell Viability (%) Average): 34.3%
- viability at 0.000508 µM (HT29-vector cells; 0.000508 μM + TSZ, read-out: Cell Viability (%) Average): 38.1%
- viability at 0.001524 µM (HT29-vector cells; 0.001524 μM + TSZ, read-out: Cell Viability (%) Average): 41.2%
- viability at 0.004572 µM (HT29-vector cells; 0.004572 μM + TSZ, read-out: Cell Viability (%) Average): 64.8%
- viability at 0.013717 µM (HT29-vector cells; 0.013717 μM + TSZ, read-out: Cell Viability (%) Average): 108%
- viability at 0.041152 µM (HT29-vector cells; 0.041152 μM + TSZ, read-out: Cell Viability (%) Average): 109%
- viability at 0.123457 µM (HT29-vector cells; 0.123457 μM + TSZ, read-out: Cell Viability (%) Average): 110%
- viability at 0.37037 µM (HT29-vector cells; 0.370370 μM + TSZ, read-out: Cell Viability (%) Average): 113%
- viability at 1.11111 µM (HT29-vector cells; 1.111111 μM + TSZ, read-out: Cell Viability (%) Average): 102%
- EC50 (HT29-vector cells; HT29-vector, TSZ): 4.2 ± 0.2 nM
- levels of pRIPK1, pRIPK3, and pMLKL in the colon (pRIPK1, pRIPK3, pMLKL): reduced the levels of pRIPK1, pRIPK3, and pMLKL proteins
- doses well tolerated [1]: up to 250 mg/kg
- Plasma Concentraion ([2]; Supplementary Figure 7 panel a, 0.083 h): 11181.2 ng/mL and 13503.2 ng/mL
- Plasma Concentraion ([2]; Supplementary Figure 7 panel a, 0.5 h): 2022.7 ng/mL and 2493.56 ng/mL
- Plasma Concentraion ([2]; Supplementary Figure 7 panel a, 1 h): 324.429 ng/mL and 368.25 ng/mL
- Plasma Concentraion ([2]; Supplementary Figure 7 panel a, 2 h): 53.1161 ng/mL and 49.8208 ng/mL
- Plasma Concentraion ([2]; Supplementary Figure 7 panel a, 4 h): 20.793 ng/mL and 12.876 ng/mL
- Plasma Concentraion ([2]; Supplementary Figure 7 panel a, 6 h): 12.1272 ng/mL and 7.691 ng/mL
- Plasma Concentraion ([2]; Supplementary Figure 7 panel a, 8 h): 5.677 ng/mL and 3.748 ng/mL
- Plasma Concentraion ([2]; Supplementary Figure 7 panel b, 0.083 h): 127.196 ng/mL and 183.609 ng/mL
- Plasma Concentraion ([2]; Supplementary Figure 7 panel b, 0.5 h): 350.948 ng/mL and 617.101 ng/mL
- Plasma Concentraion ([2]; Supplementary Figure 7 panel b, 6 h): 11.7068 ng/mL and 13.5938 ng/mL
- Plasma Concentraion ([2]; Supplementary Figure 7 panel b, 8 h): 8.501 ng/mL and 5.3 ng/mL
- Plasma Concentraion ([2]; Supplementary Figure 7 panel c, 0.083 h): 841.69 ng/mL and 1224.6 ng/mL
- Plasma Concentraion ([2]; Supplementary Figure 7 panel c, 0.5 h): 4149.3 ng/mL and 2823.2 ng/mL
- Plasma Concentraion ([2]; Supplementary Figure 7 panel c, 1 h): 3680.1 ng/mL and 2363 ng/mL
- Plasma Concentraion ([2]; Supplementary Figure 7 panel c, 2 h): 635.78 ng/mL and 701.71 ng/mL
- Plasma Concentraion ([2]; Supplementary Figure 7 panel c, 4 h): 226.7 ng/mL and 115.63 ng/mL
- concentration at 0.083 h ([2]; male, Sprague-Dawley, rat, plasma, intraperitoneal, 20 mg/kg, Supplementary Figure 7 panel c, 0.083 h): 1010 ng/mL
- concentration at 0.5 h ([2]; male, Sprague-Dawley, rat, plasma, intraperitoneal, 20 mg/kg, Supplementary Figure 7 panel c, 0.5 h): 3840 ng/mL
- concentration at 1 h ([2]; male, Sprague-Dawley, rat, plasma, intraperitoneal, 20 mg/kg, Supplementary Figure 7 panel c, 1 h): 3080 ng/mL
- concentration at 2 h ([2]; male, Sprague-Dawley, rat, plasma, intraperitoneal, 20 mg/kg, Supplementary Figure 7 panel c, 2 h): 737 ng/mL
- concentration at 4 h ([2]; male, Sprague-Dawley, rat, plasma, intraperitoneal, 20 mg/kg, Supplementary Figure 7 panel c, 4 h): 229 ng/mL
- concentration at 0.083 h ([2]; male, Sprague-Dawley, rat, plasma, intravenous, 5 mg/kg, Supplementary Figure 7 panel a, 0.083 h): 11800 ng/mL
- concentration at 0.5 h ([2]; male, Sprague-Dawley, rat, plasma, intravenous, 5 mg/kg, Supplementary Figure 7 panel a, 0.5 h): 1610 ng/mL
- concentration at 1 h ([2]; male, Sprague-Dawley, rat, plasma, intravenous, 5 mg/kg, Supplementary Figure 7 panel a, 1 h): 291 ng/mL
- concentration at 2 h ([2]; male, Sprague-Dawley, rat, plasma, intravenous, 5 mg/kg, Supplementary Figure 7 panel a, 2 h): 59.6 ng/mL
- concentration at 4 h ([2]; male, Sprague-Dawley, rat, plasma, intravenous, 5 mg/kg, Supplementary Figure 7 panel a, 4 h): 20.6 ng/mL
- concentration at 6 h ([2]; male, Sprague-Dawley, rat, plasma, intravenous, 5 mg/kg, Supplementary Figure 7 panel a, 6 h): 11.6 ng/mL
- concentration at 8 h ([2]; male, Sprague-Dawley, rat, plasma, intravenous, 5 mg/kg, Supplementary Figure 7 panel a, 8 h): 6.4 ng/mL
- AUC(0-inf) [2, 3]: 6610 ± 1120 ng·h/mL
- AUC(0-t) [2, 3]: 6460 ng·h/mL
- Cmax [2, 3]: 3600 ± 693 ng/mL
- Tmax [2, 3]: 0.5 h
- bioavailability [2, 3]: 35.7 ± 6.3%
- half-life [2, 3]: 8.5 ± 1.6 h
- MRT inf [2, 3]: 2.8 ± 0.1 h
- AUC(0-inf) [2, 4]: 4540 ± 546 ng·h/mL
- AUC(0-t) [2, 4]: 4530 ng·h/mL
- Cmax [2, 4]: 12200 ± 1200 ng/mL
- Tmax [2, 4]: 0.1 h
- clearance [2, 4]: 18.5 ± 2.1 mL/min/kg
- half-life [2, 4]: 2.1 ± 0.2 h
- MRT inf [2, 4]: 0.4 h
- Vd ([2]; male, Sprague-Dawley, rat, plasma, iv, 5 mg/kg, read-out: Vss): 0.4 ± 0.1 L/kg
- concentration at 0.083 h ([2]; male, Sprague-Dawley, rat, plasma, oral, 20 mg/kg, Supplementary Figure 7 panel b, 0.083 h): 113 ng/mL
- concentration at 0.5 h ([2]; male, Sprague-Dawley, rat, plasma, oral, 20 mg/kg, Supplementary Figure 7 panel b, 0.5 h): 418 ng/mL
- concentration at 6 h ([2]; male, Sprague-Dawley, rat, plasma, oral, 20 mg/kg, Supplementary Figure 7 panel b, 6 h): 11.3 ng/mL
- concentration at 8 h ([2]; male, Sprague-Dawley, rat, plasma, oral, 20 mg/kg, Supplementary Figure 7 panel b, 8 h): 7.91 ng/mL
- AUC(0-inf) [2, 5]: 1600 ± 896 ng·h/mL
- AUC(0-t) [2, 5]: 1590 ng·h/mL
- Cmax [2, 5]: 674 ± 425 ng/mL
- Tmax [2, 5]: 0.8 ± 1 h
- half-life [2, 5]: 1.3 ± 0.2 h
- MRT inf [2, 5]: 1.8 ± 0.2 h
- AUC0–t ([2]; p.o., 20 mg/kg): 1594.9 ± 891.8 ng·h/mL
- F (%) ([2]; p.o., 20 mg/kg): 8.8 ± 5.0%
- content of TNFα in cultured colonic tissue supernatants (TNFα; 40 mg/kg i.p., day 7): substantially reduced
- TNFα (TNFα; Figure 9g, individual replicates 1-3): 139.9 pg/mL and 111.6 pg/mL and 109.1 pg/mL
